# Measured values reported in US20170001990A1 (Genentech, Inc., priority 2014, published 2017).
# “And” between values parts separate entries of the source, which are not always exact repeats. Equal entries are not always repeated.
# Biological target: Human recombinant carboxy-terminal his-tagged LDHA (amino acids 2-332) (Homo sapiens, UniProt P00338)
# Experiment: LDHA enzyme inhibition assay (NADH fluorescence)
# Details: LDHA IC50 (μM), 1 nM LDHA, NADH and pyruvate, stereochemistry of tested sample given
row,SMILES,IC50
1,"O=C1CC(c2ccsc2)(c2cccc(OCC3CC3)n2)NC(=O)C1Sc1ccccc1Cl (single isomer, unassigned) [Example 93, 3-(2-chlorophenyl)sulfanyl-6-[6-(cyclopropyl-methoxy)-2-pyridyl]-6-(3-thienyl)piperidine-2,4-dione]",0.319 µM
2,"O=C1CC(c2ccc(N3CCOCC3)cc2)(c2cscn2)NC(=O)C1Sc1ccccc1Cl (stereo not drawn) [Example 42, 3-((2-chlorophenyl)thio)-6-(4-morpholinophenyl)-6-(thiazol-4-yl) piperidine-2,4-dione]",0.005 µM and 0.01 µM and 0.017 µM
3,"CCC(C)COc1cccc(C2(c3ccsc3)CC(=O)C(Sc3ccccc3Cl)C(=O)N2)n1 (stereo not drawn) [Example 164, 3-(2-chlorophenyl)sulfanyl-6-[6-(2-methylbutoxy)-2-pyridyl]-6-(3-thienyl) piperidine-2,4-dione]",0.009 µM
4,"O=C1C[C@](c2ccc(N3CCOCC3)cc2)(c2cccc(Oc3ccc(F)c(F)c3)n2)NC(=O)C1Sc1ccccc1Cl (stereo partly drawn) [Example 318, (6S)-3-(2-chlorophenyl) sulfanyl-6-[6-(3,4-difluoro-phenoxy)-2-pyridyl]-6-(4-morpholinophenyl) piperidine-2,4-dione]",0.01 µM
5,"CN1C(=O)C(Sc2ccccc2Cl)C(=O)CC1(c1ccsc1)c1cccc(NC2CCOCC2)c1 (stereo not drawn) [Example 34, 3-(2-chlorophenyl)sulfanyl-1-methyl-6-[3-(tetrahydropyran-4-ylamino)phenyl]-6-(3-thienyl)piperidine-2,4-dione]",0.033 µM
6,"O=C1CC(c2ccsc2)(c2cccc(Cc3cc(F)cc(F)c3)n2)NC(=O)C1Sc1ccccc1Cl (stereo not drawn) [Example 151, 3-(2-chlorophenyl)sulfanyl-6-[6-[(3,5-difluorophenyl)methyl]-2-pyridyl]-6-(3-thienyl)piperidine-2,4-dione]",0.015 µM
7,"CC(C)CCOc1cccc(C2(c3ccsc3)CC(=O)C(Sc3ccccc3Cl)C(=O)N2)n1 (single isomer, unassigned) [Example 124, 3-((2-chlorophenyl)thio)-6-(6-(isopentyloxy)pyridin-2-yl)-6-(thiophen-3-yl)piperidine-2,4-dione]",0.003 µM
8,"O=C1CC(c2ccc(N3CCC(F)CC3)cc2)(c2ccsc2)NC(=O)C1Sc1ccccc1Cl (stereo not drawn) [Example 107, 3-(2-chlorophenyl)sulfanyl-6-[4-(4-fluoro-1-piperidyl)phenyl]-6-(3-thienyl)piperidine-2,4-dione]",0.131 µM
9,"O=C1CC(c2ccsc2)(c2cccc(CCc3ccc(F)cc3)n2)NC(=O)C1Sc1ccccc1Cl (single isomer, unassigned) [Example 294, 3-((2-chlorophenyl)thio)-6-(6-(4-fluorophenethyl)pyridin-2-yl)-6-(thiophen-3-yl)piperidine-2,4-dione]",0.036 µM
10,"COc1ccc(Oc2cccc(C3(c4ccsc4)CC(=O)C(Sc4ccccc4Cl)C(=O)N3)n2)cc1 (stereo not drawn) [Example 59, 3-(2-chlorophenyl)sulfanyl-6-[6-(4-methoxyphenoxy)-2-pyridyl]-6-(3-thienyl) piperidine-2,4-dione]",0.056 µM
11,"O=C1CC(c2ccsc2)(c2cccc(Cc3ccccc3)n2)NC(=O)C1Sc1ccccc1Cl (single isomer, unassigned) [Example 180, 6-(6-benzyl-2-pyridyl)-3-(2-chlorophenyl)sulfanyl-6-(3-thienyl)piperidine-2,4-dione]",0.002 µM
12,"O=C1CC(c2ccc(N3CC4(COC4)C3)cc2)(c2ccsc2)NC(=O)C1Sc1ccccc1Cl (stereo not drawn) [Example 45, 3-(2-chlorophenyl) sulfanyl-6-[4-(2-oxa-6-azaspiro[3.3]heptan-6-yl)phenyl]-6-(3-thienyl)piperidine-2,4-dione]",0.069 µM
13,"CC1CN(c2ccc(C3(c4ccsc4)CC(=O)C(Sc4ccccc4Cl)C(=O)N3)cc2)CCO1 (stereo not drawn) [Example 7, 3-(2-chlorophenyl)sulfanyl-6-[4-(2-methylmorpholin-4-yl)phenyl]-6-(3-thienyl)piperidine-2,4-dione]",0.009 µM
14,"O=C1CC(c2ccsc2)(c2cccc(NCc3ccc(F)cc3)n2)NC(=O)C1Sc1ccccc1Cl (single isomer, unassigned) [Example 285, 3-((2-chlorophenyl)thio)-6-(6-((4-fluorobenzyl)amino)pyridin-2-yl)-6-(thiophen-3-yl)piperidine-2,4-dione]",0.01 µM
15,CC(Nc1cccc(C2(c3ccsc3)CC(=O)C(Sc3ccccc3Cl)C(=O)N2)n1)C1CC1 (stereo not drawn) [Example 331],0.148 µM
16,"O=C1CC(c2ccsc2)(c2cccc(OCC3COC3)n2)NC(=O)C1Sc1ccccc1Cl (single isomer, unassigned) [Example 199, 3-(2-chlorophenyl)sulfanyl-6-[6-(oxetan-3-ylmethoxy)-2-pyridyl]-6-(3-thienyl) piperidine-2,4-dione]",0.012 µM
17,"O=C1CC(c2ccsc2)(c2cccc(Oc3ccc(F)c(Br)c3)n2)NC(=O)C1Sc1ccccc1Cl (single isomer, unassigned) [Example 143, 6-[6-(3-bromo-4-fluoro-phenoxy)-2-pyridyl]-3-(2-chlorophenyl)sulfanyl-6-(3-thienyl)piperidine-2,4-dione]",0.033 µM

row,SMILES,IC50
1,"CC(C)(C)COc1cccc(C2(c3ccsc3)CC(=O)C(Sc3ccccc3Cl)C(=O)N2)n1 (stereo not drawn) [Example 226, 3-(2-chlorophenyl)sulfanyl-6-[6-(2,2-dimethylpropoxy)-2-pyridyl]-6-(3-thienyl) piperidine-2,4-dione]",0.02 µM
2,"O=C1CC(c2ccsc2)(c2cccc(OCCC3CCC3)n2)NC(=O)C1Sc1ccccc1Cl (single isomer, unassigned) [Example 132, 3-((2-chlorophenyl)thio)-6-(6-(2-cyclobutyl-ethoxy)pyridin-2-yl)-6-(thiophen-3-yl)piperidine-2,4-dione]",0.009 µM
3,"O=C1C[C@@](c2ccsc2)(c2ccc(N3CCOCC3)c(F)c2)NC(=O)C1Sc1ccccc1Cl (mixture of isomers) [Example 316, (6S)-3-(2-chlorophenyl) sulfanyl-6-(3-fluoro-4-morpholine-phenyl)-6-(3-thienyl)piperidine-2,4-dione]",0.044 µM
4,"C[C@@H](CC1CC1)Oc1cccc(C2(c3ccsc3)CC(=O)C(Sc3ccccc3Cl)C(=O)N2)n1 (stereo in doubt) [Example 322, 3-((2-chlorophenyl)thio)-6-(6-((1-cyclopropyl-propan-2-yl)oxy)pyridin-2-yl)-6-(thiophen-3-yl) piperidine-2,4-dione]",0.012 µM
5,"O=C1CC(c2ccsc2)(c2cccc(Oc3ccc(F)c(F)c3)n2)NC(=O)C1Sc1ccccc1Cl (single isomer, unassigned) [Example 57, 3-(2-chlorophenyl)sulfanyl-6-[6-(3,4-difluoro-phenoxy)-2-pyridyl]-6-(3-thienyl)piperidine-2,4-dione]",0.086 µM
6,"O=C1CC(c2ccsc2)(c2cccc(OCC3CCC(CO)CC3)n2)NC(=O)C1Sc1ccccc1Cl (single isomer, unassigned) [Example 244, 3-(2-chlorophenyl)sulfanyl-6-[6-[[4-(hydroxymethyl)cyclohexyl]methoxy]-2-pyridyl]-6-(3-thienyl) piperidine-2,4-dione]",0.023 µM
7,"O=C1CC(c2ccsc2)(c2cccc(NCCC3CC3)n2)NC(=O)C1Sc1ccccc1Cl (single isomer, unassigned) [Example 110, 3-(2-chlorophenyl)sulfanyl-6-[6-(2-cyclopropylethyl-amino)-2-pyridyl]-6-(3-thienyl)piperidine-2,4-dione]",0.018 µM
8,"O=C1CC(c2ccsc2)(c2cccc(Oc3cccc(F)c3)n2)NC(=O)C1Sc1ccccc1Cl (stereo not drawn) [Example 80, 3-(2-chlorophenyl)sulfanyl-6-[6-(3-fluorophenoxy)-2-pyridyl]-6-(3-thienyl) piperidine-2,4-dione]",0.056 µM
9,"O=C1CC(c2ccsc2)(c2cccc(Oc3cc(F)cc(CO)c3)n2)NC(=O)C1Sc1ccccc1Cl (single isomer, unassigned) [Example 176, 3-(2-chlorophenyl)sulfanyl-6-[6-[3-fluoro-5-(hydroxymethyl)phenoxy]-2-pyridyl]-6-(3-thienyl) piperidine-2,4-dione]",0.01 µM
10,"O=C1CC(c2ccsc2)(c2cccc(OCCC3CCC3)n2)NC(=O)C1Sc1ccccc1Cl (single isomer, unassigned) [Example 168, 3-(2-chlorophenyl)sulfanyl-6-[6-(2-cyclobutylethoxy)-2-pyridyl]-6-(3-thienyl) piperidine-2,4-dione]",0.19 µM
11,"Cn1ccc(Nc2cccc(C3(c4ccsc4)CC(=O)C(Sc4ccccc4Cl)C(=O)N3)n2)n1 (stereo not drawn) [Example 270, 3-((2-chlorophenyl)thio)-6-(6-((1-methyl-1H-pyrazol-3-yl)amino)pyridin-2-yl)-6-(thiophen-3-yl)piperidine-2,4-dione]",0.099 µM
12,"O=C1CC(c2ccsc2)(c2cccc(Oc3cncc(F)c3)n2)NC(=O)C1Sc1ccccc1Cl (single isomer, unassigned) [Example 202, 3-(2-chlorophenyl)sulfanyl-6-[6-[(5-fluoro-3-pyridyl)oxy]-2-pyridyl]-6-(3-thienyl) piperidine-2,4-dione]",0.018 µM
13,"O=C1CC(c2ccsc2)(c2cccc(OCC3CCCCC3)n2)NC(=O)C1Sc1ccccc1Cl (stereo not drawn) [Example 308, 3-((2-chlorophenyl)thio)-6-(6-(cyclohexylmethoxy)pyridin-2-yl)-6-(thiophen-3-yl)piperidine-2,4-dione]",0.825 µM
14,"O=C1CC(c2ccsc2)(c2cccc(Oc3ccc(F)c(F)c3)n2)NC(=O)C1Oc1ccccc1Cl (stereo not drawn) [Example 217, 3-(2-chlorophenoxy)-6-[6-(3,4-difluorophenoxy)-2-pyridyl]-6-(3-thienyl) piperidine-2,4-dione]",0.01 µM
15,"CC1(C)OCC(CCOc2cccc(C3(c4ccsc4)CC(=O)C(Sc4ccccc4Cl)C(=O)N3)n2)O1 (stereo not drawn) [Example 211, 3-(2-chlorophenyl)sulfanyl-6-[6-[2-(2,2-dimethyl-1,3-dioxolan-4-yl)ethoxy]-2-pyridyl]-6-(3-thienyl) piperidine-2,4-dione]",0.183 µM
16,"O=C1CC(c2ccsc2)(c2cccc(OCc3ccc(F)cc3)n2)NC(=O)C1Sc1ccccc1Cl (single isomer, unassigned) [Example 289, 3-((2-chlorophenyl)thio)-6-(6-((4-fluorobenzyl)oxy)pyridin-2-yl)-6-(thiophen-3-yl)piperidine-2,4-dione]",0.022 µM
